# Measured values: PubChem BioAssay (NCI)
#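 Method: 48-hour compound exposure of cells in 96-well plates, five concentrations, linear interpolation of endpoints. GI50: concentration for 50% inhibition of growth. TGI: total growth inhibition.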
# Columns and labels:
# Assay in all cases: inhibition of tumour cell growth, NCI panel, 48 h
# SF-539 CNS = test system: SF-539 CNS
# DU-145 prostate = test system: DU-145 prostate
# NCI-H226 lung = test system: NCI-H226 lung
# MDA-MB-435 = test system: MDA-MB-435
# HCT-15 colon = test system: HCT-15 colon
# SK-MEL-5 melanoma = test system: SK-MEL-5 melanoma
# SR leukemia = test system: SR leukemia
# ACHN renal = test system: ACHN renal
# IGROV1 ovarian = test system: IGROV1 ovarian
# LOX IMVI melanoma = test system: LOX IMVI melanoma
# 786-0 renal = test system: 786-0 renal
# RXF 393 renal = test system: RXF 393 renal
# SW-620 colon = test system: SW-620 colon
# HOP-62 NSCLC = test system: HOP-62 NSCLC
# MCF7 breast = test system: MCF7 breast
# OVCAR-4 ovarian = test system: OVCAR-4 ovarian
# A549 NSCLC = test system: A549 NSCLC
# UACC-62 melanoma = test system: UACC-62 melanoma
# MDA-MB-468 breast = test system: MDA-MB-468 breast
# OVCAR-5 ovarian = test system: OVCAR-5 ovarian
# SNB-19 CNS = test system: SNB-19 CNS
# A498 renal = test system: A498 renal
# HCC-2998 colon = test system: HCC-2998 colon
# K-562 leukemia = test system: K-562 leukemia
# OVCAR-3 ovarian = test system: OVCAR-3 ovarian
# RPMI-8226 leukemia = test system: RPMI-8226 leukemia
# SK-MEL-28 melanoma = test system: SK-MEL-28 melanoma
# SK-OV-3 ovarian = test system: SK-OV-3 ovarian
# PC-3 prostate = test system: PC-3 prostate
# CAKI-1 renal = test system: CAKI-1 renal
# COLO 205 colon = test system: COLO 205 colon
# KM12 colon = test system: KM12 colon
# NCI-H460 lung = test system: NCI-H460 lung
# HS 578T breast = test system: HS 578T breast
# OVCAR-8 ovarian = test system: OVCAR-8 ovarian
# HCT-116 colon = test system: HCT-116 colon
# SN12C renal = test system: SN12C renal
# MOLT-4 leukemia = test system: MOLT-4 leukemia
# MALME-3M melanoma = test system: MALME-3M melanoma
# CCRF-CEM leukemia = test system: CCRF-CEM leukemia
# SF-295 CNS = test system: SF-295 CNS
# NCI-H23 lung = test system: NCI-H23 lung
# EKVX NSCLC = test system: EKVX NSCLC
# HOP-92 NSCLC = test system: HOP-92 NSCLC
# NCI-H522 lung = test system: NCI-H522 lung
# M14 melanoma = test system: M14 melanoma
# HL-60(TB) leukemia = test system: HL-60(TB) leukemia
# T-47D breast = test system: T-47D breast
# UACC-257 melanoma = test system: UACC-257 melanoma
# SF-268 CNS = test system: SF-268 CNS
# HT29 colon = test system: HT29 colon
# BT-549 breast = test system: BT-549 breast
# U251 CNS = test system: U251 CNS
# NCI/ADR-RES ovarian = test system: NCI/ADR-RES ovarian
# TK-10 renal = test system: TK-10 renal
smiles,measurement,setting,value
CS(=O)(=O)Nc1ccc(-c2ccc3c(c2)ncn3-c2ccc(NC(=O)Nc3ccc(Cl)c(C(F)(F)F)c3)cc2)cc1,GI50,SF-539 CNS,1.56 µM
same,TGI,SF-539 CNS,6.52 µM
same,GI50,DU-145 prostate,3.84 µM
same,TGI,DU-145 prostate,17.1 µM
same,GI50,NCI-H226 lung,3.05 µM
same,TGI,NCI-H226 lung,11.8 µM
same,GI50,MDA-MB-435,2.97 µM
same,TGI,MDA-MB-435,12.4 µM
same,GI50,HCT-15 colon,2.73 µM
same,TGI,HCT-15 colon,10.1 µM
same,GI50,SK-MEL-5 melanoma,1.85 µM
same,TGI,SK-MEL-5 melanoma,3.87 µM
same,GI50,SR leukemia,1.61 µM
same,TGI,SR leukemia,3.71 µM
same,GI50,ACHN renal,2.72 µM
same,TGI,ACHN renal,9.66 µM
same,GI50,IGROV1 ovarian,3.24 µM
same,TGI,IGROV1 ovarian,11.5 µM
same,GI50,LOX IMVI melanoma,2.63 µM
same,TGI,LOX IMVI melanoma,7.31 µM
same,GI50,786-0 renal,1.87 µM
same,TGI,786-0 renal,4.42 µM
same,GI50,RXF 393 renal,1.05 µM
same,TGI,RXF 393 renal,3.83 µM
same,GI50,SW-620 colon,2.97 µM
same,TGI,SW-620 colon,12.8 µM
same,GI50,HOP-62 NSCLC,2.06 µM
same,TGI,HOP-62 NSCLC,4.96 µM
same,GI50,MCF7 breast,1.86 µM
same,TGI,MCF7 breast,5.04 µM
same,GI50,OVCAR-4 ovarian,4.05 µM
same,TGI,OVCAR-4 ovarian,21.1 µM
same,GI50,A549 NSCLC,3 µM
same,TGI,A549 NSCLC,10.8 µM
same,GI50,UACC-62 melanoma,1.91 µM
same,TGI,UACC-62 melanoma,4.23 µM
same,GI50,MDA-MB-468 breast,2.43 µM
same,TGI,MDA-MB-468 breast,7.78 µM
same,GI50,OVCAR-5 ovarian,3.03 µM
same,TGI,OVCAR-5 ovarian,11.1 µM
same,GI50,SNB-19 CNS,3.23 µM
same,TGI,SNB-19 CNS,12 µM
same,GI50,A498 renal,2.42 µM
same,TGI,A498 renal,7.41 µM
same,GI50,HCC-2998 colon,4.32 µM
same,TGI,HCC-2998 colon,14.7 µM
same,GI50,K-562 leukemia,1.95 µM
same,TGI,K-562 leukemia,5.48 µM
same,GI50,OVCAR-3 ovarian,3.17 µM
same,TGI,OVCAR-3 ovarian,10.6 µM
same,GI50,RPMI-8226 leukemia,1.9 µM
same,TGI,RPMI-8226 leukemia,5.16 µM
same,GI50,SK-MEL-28 melanoma,2.53 µM
same,TGI,SK-MEL-28 melanoma,10.3 µM
same,GI50,SK-OV-3 ovarian,2.84 µM
same,TGI,SK-OV-3 ovarian,9.55 µM
same,GI50,PC-3 prostate,2.81 µM
same,TGI,PC-3 prostate,10.3 µM
same,GI50,CAKI-1 renal,4.73 µM
same,TGI,CAKI-1 renal,20.9 µM
same,GI50,COLO 205 colon,2.05 µM
same,TGI,COLO 205 colon,5.15 µM
same,GI50,KM12 colon,0.38 µM
same,TGI,KM12 colon,9.59 µM
same,GI50,NCI-H460 lung,2.64 µM
same,TGI,NCI-H460 lung,9.49 µM
same,GI50,HS 578T breast,2.14 µM
same,TGI,HS 578T breast,6.46 µM
same,GI50,OVCAR-8 ovarian,2.38 µM
same,TGI,OVCAR-8 ovarian,6.87 µM
same,GI50,HCT-116 colon,2.9 µM
same,TGI,HCT-116 colon,9.97 µM
same,GI50,SN12C renal,2.99 µM
same,TGI,SN12C renal,11.2 µM
same,GI50,MOLT-4 leukemia,1.72 µM
same,TGI,MOLT-4 leukemia,5.05 µM
same,GI50,MALME-3M melanoma,2.1 µM
same,TGI,MALME-3M melanoma,5.58 µM
same,GI50,CCRF-CEM leukemia,2.72 µM
same,TGI,CCRF-CEM leukemia,8.84 µM
same,GI50,SF-295 CNS,1.54 µM
same,TGI,SF-295 CNS,3.21 µM
same,GI50,NCI-H23 lung,2.42 µM
same,TGI,NCI-H23 lung,7.92 µM
same,GI50,EKVX NSCLC,2.89 µM
same,TGI,EKVX NSCLC,10.2 µM
same,GI50,HOP-92 NSCLC,3.41 µM
same,TGI,HOP-92 NSCLC,8.67 µM
same,GI50,NCI-H522 lung,2.33 µM
same,TGI,NCI-H522 lung,8.12 µM
same,GI50,M14 melanoma,2.38 µM
same,TGI,M14 melanoma,9.11 µM
same,GI50,HL-60(TB) leukemia,1.79 µM
same,TGI,HL-60(TB) leukemia,4.02 µM
same,GI50,T-47D breast,2.69 µM
same,TGI,T-47D breast,12.2 µM
same,GI50,UACC-257 melanoma,2.43 µM
same,TGI,UACC-257 melanoma,6.85 µM
same,GI50,SF-268 CNS,3.42 µM
same,TGI,SF-268 CNS,15.4 µM
same,GI50,HT29 colon,2.95 µM
same,TGI,HT29 colon,10.8 µM
same,GI50,BT-549 breast,2.99 µM
same,TGI,BT-549 breast,7.17 µM
same,GI50,U251 CNS,2.49 µM
same,TGI,U251 CNS,10.8 µM
same,GI50,NCI/ADR-RES ovarian,5.19 µM
same,TGI,NCI/ADR-RES ovarian,24.8 µM
same,GI50,TK-10 renal,3.83 µM
same,TGI,TK-10 renal,13.5 µM
